# Test results from patent US12275731B2, “Azaindole inhibitors of wild-type and mutant forms of LRRK2” (DANA-FARBER CANCER INSTITUTE, INC., priority 2018, dated 2025).
# Tests used:
# Assay in all cases: KinomeScan profiling
# Assay type in all cases: binding
# [1] = target: T1, TAK1 (Homo sapiens, UniProt O43318); details: TAK1, 1 μM; read-out: % control
# T1 construct: purchased KinomeScan® (panel service)
# T1 sequence (O43318 1-606): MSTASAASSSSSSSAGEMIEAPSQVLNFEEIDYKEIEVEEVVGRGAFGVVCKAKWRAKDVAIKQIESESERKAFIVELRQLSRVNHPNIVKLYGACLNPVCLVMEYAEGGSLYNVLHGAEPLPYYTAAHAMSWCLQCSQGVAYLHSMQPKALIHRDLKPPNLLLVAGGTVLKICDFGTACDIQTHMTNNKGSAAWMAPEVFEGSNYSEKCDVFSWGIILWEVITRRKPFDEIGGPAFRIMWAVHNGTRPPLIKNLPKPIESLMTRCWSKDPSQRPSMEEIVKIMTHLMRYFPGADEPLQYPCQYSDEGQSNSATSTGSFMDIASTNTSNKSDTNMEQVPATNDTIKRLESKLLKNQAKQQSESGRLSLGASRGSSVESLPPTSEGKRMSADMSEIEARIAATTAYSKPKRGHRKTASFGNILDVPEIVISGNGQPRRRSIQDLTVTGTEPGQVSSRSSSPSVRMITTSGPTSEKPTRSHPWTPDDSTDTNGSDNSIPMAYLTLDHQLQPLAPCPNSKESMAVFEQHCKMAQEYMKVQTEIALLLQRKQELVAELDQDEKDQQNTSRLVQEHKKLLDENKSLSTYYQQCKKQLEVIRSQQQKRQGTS
# Summary of the method: (§1)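 The panel spans 468 kinases, and each inventive compound was applied at 1 μM from DMSO. Lower % control means stronger binding; the activity cut-off is set at less than 35%.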
# [2] = target: T2, PKMYT1 (Homo sapiens, UniProt Q99640); details: PKMYT1, 1 μM; read-out: % control
# T2 sequence (Q99640 1-499): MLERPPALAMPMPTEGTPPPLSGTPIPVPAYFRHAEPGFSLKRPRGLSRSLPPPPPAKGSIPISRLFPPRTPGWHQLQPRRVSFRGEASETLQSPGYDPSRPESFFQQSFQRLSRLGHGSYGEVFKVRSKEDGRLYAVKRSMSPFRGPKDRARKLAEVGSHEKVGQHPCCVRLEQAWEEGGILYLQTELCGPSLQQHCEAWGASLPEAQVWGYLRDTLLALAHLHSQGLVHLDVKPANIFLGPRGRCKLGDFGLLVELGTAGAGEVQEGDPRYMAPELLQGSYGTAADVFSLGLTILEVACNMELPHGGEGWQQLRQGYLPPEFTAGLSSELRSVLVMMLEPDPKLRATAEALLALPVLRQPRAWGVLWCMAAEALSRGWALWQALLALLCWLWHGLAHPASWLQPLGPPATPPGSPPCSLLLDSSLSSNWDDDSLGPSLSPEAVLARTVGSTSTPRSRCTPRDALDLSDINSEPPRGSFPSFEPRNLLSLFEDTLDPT
# Summary of the method: as §1
# [3] = target: T3, EPHB3 (Homo sapiens, UniProt P54753); details: EPHB3, 1 μM; read-out: % control
# T3 sequence (P54753 34-998): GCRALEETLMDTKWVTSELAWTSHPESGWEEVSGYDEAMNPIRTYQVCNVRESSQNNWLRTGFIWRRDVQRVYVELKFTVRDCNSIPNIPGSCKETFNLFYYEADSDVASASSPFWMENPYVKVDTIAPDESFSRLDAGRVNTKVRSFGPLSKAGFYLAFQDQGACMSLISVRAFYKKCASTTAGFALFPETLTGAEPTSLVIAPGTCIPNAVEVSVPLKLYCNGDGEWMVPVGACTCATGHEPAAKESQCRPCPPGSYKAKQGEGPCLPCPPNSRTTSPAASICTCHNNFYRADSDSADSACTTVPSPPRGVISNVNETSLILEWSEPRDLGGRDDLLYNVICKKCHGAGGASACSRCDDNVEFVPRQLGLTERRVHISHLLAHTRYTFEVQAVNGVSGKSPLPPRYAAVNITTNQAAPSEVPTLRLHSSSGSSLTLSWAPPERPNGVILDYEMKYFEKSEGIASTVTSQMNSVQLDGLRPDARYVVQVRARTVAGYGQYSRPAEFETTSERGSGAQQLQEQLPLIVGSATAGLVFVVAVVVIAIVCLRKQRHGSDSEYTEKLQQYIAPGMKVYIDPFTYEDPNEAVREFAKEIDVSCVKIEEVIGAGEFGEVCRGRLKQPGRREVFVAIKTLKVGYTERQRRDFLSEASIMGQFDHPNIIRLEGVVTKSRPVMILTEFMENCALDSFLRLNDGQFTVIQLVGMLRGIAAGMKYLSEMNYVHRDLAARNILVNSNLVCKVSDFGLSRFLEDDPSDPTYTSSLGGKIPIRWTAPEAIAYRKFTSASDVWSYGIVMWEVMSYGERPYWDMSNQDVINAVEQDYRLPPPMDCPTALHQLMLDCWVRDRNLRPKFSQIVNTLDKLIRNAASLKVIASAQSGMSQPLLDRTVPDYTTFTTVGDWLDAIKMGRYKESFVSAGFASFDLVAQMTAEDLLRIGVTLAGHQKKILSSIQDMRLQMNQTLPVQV
# Summary of the method: as §1
Structure (SMILES),remaining binding at 1 µM [1] [%],remaining binding at 1 µM [2] [%],remaining binding at 1 µM [3] [%]
"CNc1c(-c2cnn([C@H]3CCN(C(C)=O)C[C@@H]3F)c2)cnc2[nH]cc(Cl)c12 [Compound 77, 1-((3S,4S)-4-(4-(3-chloro-4-(methylamino)-1H-pyrrolo[2,3-b]pyridin-5-yl)-1H-pyrazol-1-yl)-3-fluoropiperidin-1-yl)ethan-1-one]",21,98,100
"CNc1c(-c2ccc(C(=O)N3CCC(N4CCOCC4)CC3)cc2)cnc2[nH]cc(Cl)c12 [Compound 96, (4-(3-chloro-4-(methylamino)-1H-pyrrolo[2,3-b]pyridin-5-yl)phenyl)(4-morpholinopiperidin-1-yl)methanone]",6.9,100,100
"O=C(c1ccc(-c2cnc3[nH]cc(Cl)c3c2NC2CCCC2)cc1)N1CCC(N2CCOCC2)CC1 [Compound 101, (4-(3-chloro-4-(cyclopentylamino)-1H-pyrrolo[2,3-b]pyridin-5-yl)phenyl)(4-morpholinopiperidin-1-yl)methanone]",6.1,97,79
